Assays:
NEK6 = NEK6 (Homo sapiens, UniProt Q9HC98); test: biochemical; settings: read-out: % enzyme activity, 1 μM; Run 1, Run 2
STK33 = STK33 (Homo sapiens, UniProt Q9BYT3); test: biochemical; settings: read-out: % enzyme activity, 1 μM; Run 1, Run 2
CK2a2 = CK2a2 (Homo sapiens, UniProt P19784); settings: 1 μM; Run 1, Run 2
STK25/YSK1 = STK25/YSK1 (Homo sapiens, UniProt O00506); test: biochemical; settings: read-out: % enzyme activity, 1 μM; Run 1, Run 2
CDK7/cyclin H = CDK7/cyclin H (Homo sapiens, UniProt P50613); test: biochemical; settings: read-out: % enzyme activity, 1 μM; Run 1, Run 2
Sequence of CDK7/cyclin H (P50613 whole entry): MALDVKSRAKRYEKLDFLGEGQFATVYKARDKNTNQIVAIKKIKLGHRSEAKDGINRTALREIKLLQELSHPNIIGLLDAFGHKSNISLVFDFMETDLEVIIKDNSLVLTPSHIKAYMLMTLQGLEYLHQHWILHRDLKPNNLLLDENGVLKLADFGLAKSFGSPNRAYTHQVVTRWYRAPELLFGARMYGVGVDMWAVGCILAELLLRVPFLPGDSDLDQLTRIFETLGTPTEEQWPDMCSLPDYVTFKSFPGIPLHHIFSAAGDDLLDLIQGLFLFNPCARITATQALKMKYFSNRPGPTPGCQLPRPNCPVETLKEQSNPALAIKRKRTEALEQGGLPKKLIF
Sequence of CDK7/cyclin H (P51946 whole entry partner): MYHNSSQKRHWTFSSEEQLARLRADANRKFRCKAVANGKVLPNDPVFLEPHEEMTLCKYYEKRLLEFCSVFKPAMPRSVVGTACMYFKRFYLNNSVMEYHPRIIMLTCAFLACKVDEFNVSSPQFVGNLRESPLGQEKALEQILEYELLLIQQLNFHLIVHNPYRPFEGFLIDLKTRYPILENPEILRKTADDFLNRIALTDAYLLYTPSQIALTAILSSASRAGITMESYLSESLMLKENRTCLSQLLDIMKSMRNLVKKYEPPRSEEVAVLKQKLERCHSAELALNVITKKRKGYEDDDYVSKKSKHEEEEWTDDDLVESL
Sequence of CDK7/cyclin H (P51948 whole entry partner): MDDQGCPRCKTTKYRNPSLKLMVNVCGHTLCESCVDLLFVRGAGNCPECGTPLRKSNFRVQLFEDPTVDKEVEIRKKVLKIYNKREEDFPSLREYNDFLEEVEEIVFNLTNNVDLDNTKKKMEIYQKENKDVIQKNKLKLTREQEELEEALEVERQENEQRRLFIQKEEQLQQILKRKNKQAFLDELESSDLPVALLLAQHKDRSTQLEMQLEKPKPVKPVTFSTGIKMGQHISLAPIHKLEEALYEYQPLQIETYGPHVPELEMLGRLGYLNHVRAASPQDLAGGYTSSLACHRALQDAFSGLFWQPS

STK38L/NDR2 = STK38L/NDR2 (Homo sapiens, UniProt Q9Y2H1); settings: 1 μM; Run 1, Run 2
NIM1 = NIM1 (Homo sapiens, UniProt Q8IY84); test: biochemical; settings: read-out: % enzyme activity, 1 μM; Run 1, Run 2
JNK2 = JNK2 (Homo sapiens, UniProt P45984); test: biochemical; settings: read-out: % enzyme activity, 1 μM; Run 1, Run 2
TTBK2 = TTBK2 (Homo sapiens, UniProt Q6IQ55); settings: 1 μM; Run 1, Run 2
Sequence of TTBK2 (Q6IQ55 whole entry): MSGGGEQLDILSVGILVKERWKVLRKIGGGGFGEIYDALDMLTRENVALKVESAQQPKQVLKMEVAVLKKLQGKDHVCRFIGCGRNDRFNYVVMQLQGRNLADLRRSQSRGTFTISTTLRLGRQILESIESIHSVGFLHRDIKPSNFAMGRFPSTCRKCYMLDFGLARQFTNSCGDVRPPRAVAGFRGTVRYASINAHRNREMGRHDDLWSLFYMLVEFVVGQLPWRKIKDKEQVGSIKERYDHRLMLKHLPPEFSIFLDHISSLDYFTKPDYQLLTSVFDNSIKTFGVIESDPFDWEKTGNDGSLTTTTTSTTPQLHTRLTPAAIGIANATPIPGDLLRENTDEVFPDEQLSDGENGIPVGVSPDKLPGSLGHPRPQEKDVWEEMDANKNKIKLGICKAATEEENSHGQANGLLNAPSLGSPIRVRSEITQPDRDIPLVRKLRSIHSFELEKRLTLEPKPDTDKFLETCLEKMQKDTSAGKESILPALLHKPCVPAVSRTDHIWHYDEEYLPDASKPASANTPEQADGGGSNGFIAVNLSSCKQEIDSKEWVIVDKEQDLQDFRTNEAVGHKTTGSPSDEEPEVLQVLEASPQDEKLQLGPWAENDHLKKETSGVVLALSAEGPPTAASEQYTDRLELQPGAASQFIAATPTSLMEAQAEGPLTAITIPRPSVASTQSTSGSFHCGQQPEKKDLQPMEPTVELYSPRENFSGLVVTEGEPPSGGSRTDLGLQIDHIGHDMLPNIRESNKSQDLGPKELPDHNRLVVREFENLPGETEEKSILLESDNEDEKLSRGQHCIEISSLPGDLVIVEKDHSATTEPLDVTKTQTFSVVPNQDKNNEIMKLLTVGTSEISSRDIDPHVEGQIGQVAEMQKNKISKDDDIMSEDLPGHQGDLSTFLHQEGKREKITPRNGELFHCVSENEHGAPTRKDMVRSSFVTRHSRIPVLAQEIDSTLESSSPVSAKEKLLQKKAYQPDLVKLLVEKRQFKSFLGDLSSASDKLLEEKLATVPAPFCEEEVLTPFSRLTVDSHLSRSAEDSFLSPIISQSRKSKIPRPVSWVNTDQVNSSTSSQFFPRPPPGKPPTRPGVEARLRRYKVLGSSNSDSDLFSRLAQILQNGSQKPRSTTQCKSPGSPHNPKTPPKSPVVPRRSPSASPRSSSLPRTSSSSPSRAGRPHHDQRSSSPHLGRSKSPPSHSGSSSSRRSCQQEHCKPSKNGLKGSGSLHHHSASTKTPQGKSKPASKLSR

CDK14/cyclin Y (PFTK1) = CDK14/cyclin Y (PFTK1) (Homo sapiens, UniProt O94921); settings: 1 μM; Run 1, Run 2
FER = FER (Homo sapiens, UniProt P16591); settings: 1 μM; Run 1, Run 2
WNK1 = WNK1 (Homo sapiens, UniProt Q9H4A3); settings: 1 μM; Run 1, Run 2
Sequence of WNK1 (Q9H4A3 whole entry, species assumed): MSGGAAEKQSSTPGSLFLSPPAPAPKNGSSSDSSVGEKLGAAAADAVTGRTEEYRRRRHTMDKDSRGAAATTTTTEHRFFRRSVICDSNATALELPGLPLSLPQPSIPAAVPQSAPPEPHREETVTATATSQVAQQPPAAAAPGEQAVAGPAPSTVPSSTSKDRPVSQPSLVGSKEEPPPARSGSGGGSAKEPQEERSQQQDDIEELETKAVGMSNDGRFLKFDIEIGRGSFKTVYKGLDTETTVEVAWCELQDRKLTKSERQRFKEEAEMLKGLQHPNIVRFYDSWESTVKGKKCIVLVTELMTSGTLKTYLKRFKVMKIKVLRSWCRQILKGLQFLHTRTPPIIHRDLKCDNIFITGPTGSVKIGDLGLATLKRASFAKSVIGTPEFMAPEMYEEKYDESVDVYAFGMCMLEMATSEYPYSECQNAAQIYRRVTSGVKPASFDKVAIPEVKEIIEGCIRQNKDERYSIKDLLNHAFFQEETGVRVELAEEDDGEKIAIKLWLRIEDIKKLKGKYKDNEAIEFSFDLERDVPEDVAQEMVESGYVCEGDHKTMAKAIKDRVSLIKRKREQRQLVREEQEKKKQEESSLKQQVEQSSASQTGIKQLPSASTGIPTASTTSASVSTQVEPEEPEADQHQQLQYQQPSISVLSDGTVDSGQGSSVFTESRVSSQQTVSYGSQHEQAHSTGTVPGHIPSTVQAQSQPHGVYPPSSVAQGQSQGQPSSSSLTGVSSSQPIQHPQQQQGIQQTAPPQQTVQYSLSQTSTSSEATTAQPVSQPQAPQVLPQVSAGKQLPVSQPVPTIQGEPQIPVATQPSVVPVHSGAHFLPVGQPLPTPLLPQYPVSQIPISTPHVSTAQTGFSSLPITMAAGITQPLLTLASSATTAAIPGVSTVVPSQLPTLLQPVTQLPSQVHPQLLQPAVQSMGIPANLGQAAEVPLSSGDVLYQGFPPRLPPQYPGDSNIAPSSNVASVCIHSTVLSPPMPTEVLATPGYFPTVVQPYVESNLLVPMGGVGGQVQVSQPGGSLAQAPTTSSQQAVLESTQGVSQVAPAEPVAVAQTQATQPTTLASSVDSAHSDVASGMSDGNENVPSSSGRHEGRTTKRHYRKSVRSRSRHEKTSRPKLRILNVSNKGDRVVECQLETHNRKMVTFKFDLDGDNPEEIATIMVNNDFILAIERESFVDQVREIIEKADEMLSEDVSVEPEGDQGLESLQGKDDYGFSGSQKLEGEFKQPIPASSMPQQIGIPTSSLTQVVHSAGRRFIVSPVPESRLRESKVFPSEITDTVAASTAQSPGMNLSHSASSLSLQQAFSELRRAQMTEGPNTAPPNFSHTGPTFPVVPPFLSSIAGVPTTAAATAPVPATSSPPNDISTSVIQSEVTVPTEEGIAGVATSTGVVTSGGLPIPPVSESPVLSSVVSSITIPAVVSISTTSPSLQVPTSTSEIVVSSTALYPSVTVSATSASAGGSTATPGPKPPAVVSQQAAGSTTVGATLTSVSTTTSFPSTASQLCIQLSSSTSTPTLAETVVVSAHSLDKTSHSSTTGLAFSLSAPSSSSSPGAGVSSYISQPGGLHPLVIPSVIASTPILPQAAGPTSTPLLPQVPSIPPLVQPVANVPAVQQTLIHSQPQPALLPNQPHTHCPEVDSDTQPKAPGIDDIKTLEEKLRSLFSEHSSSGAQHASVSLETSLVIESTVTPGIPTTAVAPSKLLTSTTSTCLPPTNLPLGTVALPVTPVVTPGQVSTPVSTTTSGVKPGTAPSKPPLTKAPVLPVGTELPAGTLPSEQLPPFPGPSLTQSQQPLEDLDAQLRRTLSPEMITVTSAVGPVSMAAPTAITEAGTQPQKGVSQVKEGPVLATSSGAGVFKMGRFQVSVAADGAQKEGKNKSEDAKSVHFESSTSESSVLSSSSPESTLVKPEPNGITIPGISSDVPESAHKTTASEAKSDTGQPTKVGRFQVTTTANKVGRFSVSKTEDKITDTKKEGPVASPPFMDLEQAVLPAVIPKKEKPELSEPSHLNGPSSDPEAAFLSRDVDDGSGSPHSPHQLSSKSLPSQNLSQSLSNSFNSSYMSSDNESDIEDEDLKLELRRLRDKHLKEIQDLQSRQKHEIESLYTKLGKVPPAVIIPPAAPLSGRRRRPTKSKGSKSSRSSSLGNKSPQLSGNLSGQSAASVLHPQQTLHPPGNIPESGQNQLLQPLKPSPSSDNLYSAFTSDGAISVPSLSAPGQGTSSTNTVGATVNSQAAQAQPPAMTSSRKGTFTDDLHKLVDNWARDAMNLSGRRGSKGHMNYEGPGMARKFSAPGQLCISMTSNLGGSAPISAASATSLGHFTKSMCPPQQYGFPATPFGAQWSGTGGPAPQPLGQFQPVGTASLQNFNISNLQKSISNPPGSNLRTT

NEK7 = NEK7 (Homo sapiens, UniProt Q8TDX7); settings: 1 μM; Run 1, Run 2
Sequence of NEK7 (Q8TDX7 whole entry): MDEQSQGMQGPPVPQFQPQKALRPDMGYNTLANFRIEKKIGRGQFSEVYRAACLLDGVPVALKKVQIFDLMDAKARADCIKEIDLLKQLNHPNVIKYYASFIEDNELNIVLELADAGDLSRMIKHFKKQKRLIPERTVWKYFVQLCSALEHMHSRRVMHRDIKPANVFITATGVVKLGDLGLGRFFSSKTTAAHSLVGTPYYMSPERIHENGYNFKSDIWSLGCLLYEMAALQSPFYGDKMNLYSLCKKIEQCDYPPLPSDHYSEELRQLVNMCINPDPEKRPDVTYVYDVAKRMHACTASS

p70S6K/RPS6KB1 = p70S6K/RPS6KB1 (Homo sapiens, UniProt P23443); settings: 1 μM; Run 1, Run 2
EPHA8 = molecular target: T1, EPHA8 (Homo sapiens, UniProt P29322); settings: 1 μM; Run 1, Run 2
T1 sequence (P29322 28-1005): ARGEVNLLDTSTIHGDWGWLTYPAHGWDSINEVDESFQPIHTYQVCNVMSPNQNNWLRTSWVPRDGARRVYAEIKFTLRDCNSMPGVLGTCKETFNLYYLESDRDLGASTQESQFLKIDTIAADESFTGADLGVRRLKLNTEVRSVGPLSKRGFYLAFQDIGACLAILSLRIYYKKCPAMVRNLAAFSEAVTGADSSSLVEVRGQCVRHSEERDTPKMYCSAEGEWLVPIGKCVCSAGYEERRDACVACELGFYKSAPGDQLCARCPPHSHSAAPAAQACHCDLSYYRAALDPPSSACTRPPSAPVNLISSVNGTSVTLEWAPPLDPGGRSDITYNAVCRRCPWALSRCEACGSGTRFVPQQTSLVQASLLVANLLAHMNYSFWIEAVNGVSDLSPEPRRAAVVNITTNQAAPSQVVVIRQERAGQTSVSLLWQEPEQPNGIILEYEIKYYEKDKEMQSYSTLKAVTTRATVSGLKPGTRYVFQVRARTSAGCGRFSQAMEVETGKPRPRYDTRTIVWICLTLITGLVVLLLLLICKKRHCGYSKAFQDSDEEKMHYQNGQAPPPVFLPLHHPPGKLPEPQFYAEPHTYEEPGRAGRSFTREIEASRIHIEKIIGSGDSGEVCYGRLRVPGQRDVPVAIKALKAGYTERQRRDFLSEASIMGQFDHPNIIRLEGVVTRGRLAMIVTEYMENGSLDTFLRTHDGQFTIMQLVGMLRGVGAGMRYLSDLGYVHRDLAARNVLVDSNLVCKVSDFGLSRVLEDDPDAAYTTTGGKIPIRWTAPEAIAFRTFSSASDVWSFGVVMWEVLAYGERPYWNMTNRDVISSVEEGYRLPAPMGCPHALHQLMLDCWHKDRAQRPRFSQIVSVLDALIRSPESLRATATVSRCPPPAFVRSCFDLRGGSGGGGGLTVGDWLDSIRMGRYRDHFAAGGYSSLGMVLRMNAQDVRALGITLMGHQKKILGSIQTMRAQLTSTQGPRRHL

ULK1 = molecular target: T2, ULK1 (Homo sapiens, UniProt O75385); settings: 1 μM; Run 1, Run 2
T2 sequence (O75385 1-1050): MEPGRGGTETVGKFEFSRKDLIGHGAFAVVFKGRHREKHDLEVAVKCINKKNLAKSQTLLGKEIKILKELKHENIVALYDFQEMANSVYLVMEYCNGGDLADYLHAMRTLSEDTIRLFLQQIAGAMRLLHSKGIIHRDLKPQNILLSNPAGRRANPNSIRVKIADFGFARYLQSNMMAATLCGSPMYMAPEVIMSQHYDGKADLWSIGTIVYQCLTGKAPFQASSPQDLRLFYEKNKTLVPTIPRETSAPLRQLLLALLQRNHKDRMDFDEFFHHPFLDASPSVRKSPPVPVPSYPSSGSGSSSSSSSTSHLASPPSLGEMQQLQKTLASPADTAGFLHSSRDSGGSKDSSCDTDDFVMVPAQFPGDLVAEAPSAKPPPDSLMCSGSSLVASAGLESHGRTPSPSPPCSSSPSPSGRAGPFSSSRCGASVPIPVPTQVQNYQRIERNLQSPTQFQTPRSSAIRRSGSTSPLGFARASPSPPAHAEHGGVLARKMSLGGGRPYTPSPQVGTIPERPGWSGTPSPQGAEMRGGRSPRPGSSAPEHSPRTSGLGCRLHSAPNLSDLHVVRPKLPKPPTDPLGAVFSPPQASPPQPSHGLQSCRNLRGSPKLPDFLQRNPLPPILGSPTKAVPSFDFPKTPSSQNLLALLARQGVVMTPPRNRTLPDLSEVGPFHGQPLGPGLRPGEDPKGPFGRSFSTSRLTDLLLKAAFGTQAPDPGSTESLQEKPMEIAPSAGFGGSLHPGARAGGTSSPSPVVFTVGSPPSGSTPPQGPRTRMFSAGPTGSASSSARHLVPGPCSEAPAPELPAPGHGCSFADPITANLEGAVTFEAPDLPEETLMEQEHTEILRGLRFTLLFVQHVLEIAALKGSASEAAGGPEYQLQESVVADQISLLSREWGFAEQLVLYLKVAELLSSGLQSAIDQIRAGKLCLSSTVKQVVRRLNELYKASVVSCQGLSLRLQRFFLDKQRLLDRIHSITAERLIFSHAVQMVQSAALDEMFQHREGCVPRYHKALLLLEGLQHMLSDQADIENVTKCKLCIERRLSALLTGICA

SMILES	remaining activity at 1 µM (NEK6)	remaining activity at 1 µM (STK33)	% enzyme activity (CK2a2)	remaining activity at 1 µM (STK25/YSK1)	remaining activity at 1 µM (CDK7/cyclin H)	% enzyme activity (STK38L/NDR2)	remaining activity at 1 µM (NIM1)	remaining activity at 1 µM (JNK2)	% enzyme activity (TTBK2)	% enzyme activity (CDK14/cyclin Y (PFTK1))	% enzyme activity (FER)	% enzyme activity (WNK1)	% enzyme activity (NEK7)	% enzyme activity (p70S6K/RPS6KB1)	% enzyme activity (EPHA8)	% enzyme activity (ULK1)
COc1cc(-c2cncc(-c3ccc(N4C[C@@H](C)N(C)[C@@H](C)C4)cc3)c2C)cc(F)c1C(N)=O [Compound 26c, 2-Fluoro-6-methoxy-4-(4-methyl-5-(4-((3R,5S)-3,4,5-trimethylpiperazin-1-yl)phenyl)pyridin-3-yl)benzamide]	104%	97.4%	98.98%	96.1%	96.1%	102.97%	98.2%	94.7%	96.48%	99.61%	84.91%	102.29%	97.32%	99.76%	97.01%	89.24%
COc1cc(-c2cncc(-c3ccc(N4CCN(C)CC4)cc3)c2C)cc(F)c1C(N)=O [Compound 26a, 2-Fluoro-6-methoxy-4-(4-methyl-5-(4-(4-methylpiperazin-1-yl)phenyl)pyridin-3-yl)benzamide]	99.3%	91%	92.27%	95.7%	97%	98.69%	96.6%	93.4%	94.62%	98.24%	86.16%	107.33%	96.68%	96.69%	94.54%	83.53%
